Literature values in US20260373079A1, “USE OF LONG-ACTING FLUTICASONE PROPIONATE INJECTABLE SUSPENSIONS FOR TREATING AND PREVENTING INFLAMMATIONS OF THE GASTROINTESTINAL TRACT” (EUPRAXIA PHARMACEUTICALS INC., priority 2022, published 2026).

Legend:
[1] = for first pass metabolism, relative to fluticasone: in words
[2] = EoE patients
[3] = treatment of EoE; subcutaneous; weekly dosing recommended

C[C@H]1C[C@H]2[C@@H]3CCC4=CC(=O)C=C[C@]4(C)[C@@]3(Cl)[C@@H](O)C[C@]2(C)[C@@]1(O)C(=O)CO [beclomethasone]
first pass metabolism, relative to fluticasone [1]: substantially lower

CCC(=O)O[C@]1(C(=O)SCF)[C@H](C)C[C@H]2[C@@H]3C[C@H](F)C4=CC(=O)C=C[C@]4(C)[C@@]3(F)[C@@H](O)C[C@@]21C [fluticasone]
first-pass metabolism ([1]; by the liver): ~ 99%

C[C@]12C=CC(=O)C=C1CC[C@H]1[C@@H]3C[C@@H](O)[C@](O)(C(=O)CO)[C@@]3(C)C[C@H](O)[C@@]12F [triamcinolone]
first pass metabolism, relative to fluticasone [1]: substantially lower

Dupixent: a monoclonal antibody that is administered subcutaneously
upper respiratory tract infections [2]: 18 % of patients | effective in patients [3]: 60 % of patients
